Measurements published in ChEMBL document CHEMBL4387728, “Synthetic glycopeptides reveal specific binding pattern and conformational change at O-mannosylated position of α-dystroglycan by POMGnT1 catalyzed GlcNAc modification” (Bioorg Med Chem, 2019).
Activity calls are given as the source filed them. The calls are words filed in the database; no cut-off is given here. Peptide text beside a SMILES is read from it. * marks the point of attachment. X1 = CC(=O)N[C@H]1[C@H](O[C@H]2[C@@H](O)[C@H](O)[C@@H](CO)O[C@@H]2*)O[C@H](CO)[C@@H](O[C@@H]2O[C@H](CO)[C@H](O)[C@H](O[C@]3(C(=O)O)C[C@H](O)[C@@H](NC(C)=O)[C@H]([C@H](O)[C@H](O)CO)O3)[C@H]2O)[C@@H]1O; X2 = CC(=O)N[C@H]1[C@H](O[C@H]2[C@@H](O)[C@H](O)[C@@H](CO)O[C@@H]2*)O[C@H](CO)[C@@H](O[C@@H]2O[C@H](CO)[C@H](O)[C@H](O)[C@H]2O)[C@@H]1O; Hexanoyl(5-oxo) = CC(=O)CCCC(=O)*

Tests used:
Datura stramonium = assay: Binding affinity to biotin-labeled Datura stramonium agglutinin in pH 7.4 Tris buffer by fluorescence microarray method
Arachis hypogaea = assay: Binding affinity to biotin-labeled Arachis hypogaea agglutinin in pH 7.4 Tris buffer by fluorescence microarray method
[1] = molecular target: Lactotransferrin (Homo sapiens) (UniProt P02788); assay: Binding affinity to biotin-labeled lactoferrin (unknown origin) at 10 ug/ml in pH 5.6 MES buffer by fluorescence microarray method
[2] = test system: Sambucus racemosa subsp. sieboldiana; assay: Binding affinity to biotin-labeled Sambucus sieboldiana agglutinin in pH 7.4 Tris buffer by fluorescence microarray method
[3] = molecular target: Lactotransferrin (Homo sapiens) (UniProt P02788); assay: Binding affinity to biotin-labeled lactoferrin (unknown origin) at 10 ug/ml in pH 7.4 Tris buffer by fluorescence microarray method
[4] = Binding affinity to biotin-labeled Agaricus bisporus agglutinin in pH 7.4 Tris buffer by fluorescence microarray method
Homo sapiens [5] = species on record: Homo sapiens; assay: Binding affinity to biotin-labeled human recombinant laminin-2 at 10 ug/ml in pH 7.4 Tris buffer by fluorescence microarray method
Canavalia ensiformis = assay: Binding affinity to biotin-labeled Canavalia ensiformis agglutinin in pH 7.4 Tris buffer by fluorescence microarray method
Homo sapiens [6] = species on record: Homo sapiens; assay: Binding affinity to biotin-labeled human recombinant laminin-2 at 10 ug/ml in 5.6 MES buffer by fluorescence microarray method
[7] = molecular target: Laminin subunit alpha-1 (Homo sapiens) (UniProt P25391); assay: Binding affinity to biotin-labeled human recombinant laminin-1 at 10 ug/ml in pH 7.4 Tris buffer by fluorescence microarray method
Erythrina crista-galli = assay: Binding affinity to biotin-labeled Erythrina crista-galli agglutinin in pH 7.4 Tris buffer by fluorescence microarray method
[8] = molecular target: Laminin subunit alpha-1 (Homo sapiens) (UniProt P25391); assay: Binding affinity to biotin-labeled human recombinant laminin-1 at 10 ug/ml in pH 5.6 MES buffer by fluorescence microarray method
Maackia amurensis = assay: Binding affinity to biotin-labeled Maackia amurensis agglutinin in pH 7.4 Tris buffer by fluorescence microarray method
Triticum aestivum = assay: Binding affinity to biotin-labeled Wheat germ agglutinin in pH 7.4 Tris buffer by fluorescence microarray method

Chain of Lactotransferrin (Homo sapiens) (P02788 whole entry): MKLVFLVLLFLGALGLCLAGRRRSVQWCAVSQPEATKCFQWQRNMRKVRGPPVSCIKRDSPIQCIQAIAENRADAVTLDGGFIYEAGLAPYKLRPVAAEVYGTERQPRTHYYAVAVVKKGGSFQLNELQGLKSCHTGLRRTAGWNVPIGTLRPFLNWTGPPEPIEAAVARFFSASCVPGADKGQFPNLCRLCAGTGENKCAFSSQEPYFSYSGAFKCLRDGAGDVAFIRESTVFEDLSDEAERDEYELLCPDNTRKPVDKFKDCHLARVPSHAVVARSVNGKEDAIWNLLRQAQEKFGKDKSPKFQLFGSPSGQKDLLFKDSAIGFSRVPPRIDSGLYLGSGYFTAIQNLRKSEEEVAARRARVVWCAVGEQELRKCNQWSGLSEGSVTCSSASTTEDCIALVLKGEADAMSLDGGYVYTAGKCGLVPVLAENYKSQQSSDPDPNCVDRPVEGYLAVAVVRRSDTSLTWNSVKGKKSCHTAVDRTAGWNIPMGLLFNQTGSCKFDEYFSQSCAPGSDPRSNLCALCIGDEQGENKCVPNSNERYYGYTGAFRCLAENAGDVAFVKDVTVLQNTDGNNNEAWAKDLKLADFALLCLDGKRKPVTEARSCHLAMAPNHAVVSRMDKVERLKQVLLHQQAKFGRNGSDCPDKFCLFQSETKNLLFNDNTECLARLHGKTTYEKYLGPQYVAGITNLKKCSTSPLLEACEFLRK
Chain of Laminin subunit alpha-1 (Homo sapiens) (P25391 whole entry): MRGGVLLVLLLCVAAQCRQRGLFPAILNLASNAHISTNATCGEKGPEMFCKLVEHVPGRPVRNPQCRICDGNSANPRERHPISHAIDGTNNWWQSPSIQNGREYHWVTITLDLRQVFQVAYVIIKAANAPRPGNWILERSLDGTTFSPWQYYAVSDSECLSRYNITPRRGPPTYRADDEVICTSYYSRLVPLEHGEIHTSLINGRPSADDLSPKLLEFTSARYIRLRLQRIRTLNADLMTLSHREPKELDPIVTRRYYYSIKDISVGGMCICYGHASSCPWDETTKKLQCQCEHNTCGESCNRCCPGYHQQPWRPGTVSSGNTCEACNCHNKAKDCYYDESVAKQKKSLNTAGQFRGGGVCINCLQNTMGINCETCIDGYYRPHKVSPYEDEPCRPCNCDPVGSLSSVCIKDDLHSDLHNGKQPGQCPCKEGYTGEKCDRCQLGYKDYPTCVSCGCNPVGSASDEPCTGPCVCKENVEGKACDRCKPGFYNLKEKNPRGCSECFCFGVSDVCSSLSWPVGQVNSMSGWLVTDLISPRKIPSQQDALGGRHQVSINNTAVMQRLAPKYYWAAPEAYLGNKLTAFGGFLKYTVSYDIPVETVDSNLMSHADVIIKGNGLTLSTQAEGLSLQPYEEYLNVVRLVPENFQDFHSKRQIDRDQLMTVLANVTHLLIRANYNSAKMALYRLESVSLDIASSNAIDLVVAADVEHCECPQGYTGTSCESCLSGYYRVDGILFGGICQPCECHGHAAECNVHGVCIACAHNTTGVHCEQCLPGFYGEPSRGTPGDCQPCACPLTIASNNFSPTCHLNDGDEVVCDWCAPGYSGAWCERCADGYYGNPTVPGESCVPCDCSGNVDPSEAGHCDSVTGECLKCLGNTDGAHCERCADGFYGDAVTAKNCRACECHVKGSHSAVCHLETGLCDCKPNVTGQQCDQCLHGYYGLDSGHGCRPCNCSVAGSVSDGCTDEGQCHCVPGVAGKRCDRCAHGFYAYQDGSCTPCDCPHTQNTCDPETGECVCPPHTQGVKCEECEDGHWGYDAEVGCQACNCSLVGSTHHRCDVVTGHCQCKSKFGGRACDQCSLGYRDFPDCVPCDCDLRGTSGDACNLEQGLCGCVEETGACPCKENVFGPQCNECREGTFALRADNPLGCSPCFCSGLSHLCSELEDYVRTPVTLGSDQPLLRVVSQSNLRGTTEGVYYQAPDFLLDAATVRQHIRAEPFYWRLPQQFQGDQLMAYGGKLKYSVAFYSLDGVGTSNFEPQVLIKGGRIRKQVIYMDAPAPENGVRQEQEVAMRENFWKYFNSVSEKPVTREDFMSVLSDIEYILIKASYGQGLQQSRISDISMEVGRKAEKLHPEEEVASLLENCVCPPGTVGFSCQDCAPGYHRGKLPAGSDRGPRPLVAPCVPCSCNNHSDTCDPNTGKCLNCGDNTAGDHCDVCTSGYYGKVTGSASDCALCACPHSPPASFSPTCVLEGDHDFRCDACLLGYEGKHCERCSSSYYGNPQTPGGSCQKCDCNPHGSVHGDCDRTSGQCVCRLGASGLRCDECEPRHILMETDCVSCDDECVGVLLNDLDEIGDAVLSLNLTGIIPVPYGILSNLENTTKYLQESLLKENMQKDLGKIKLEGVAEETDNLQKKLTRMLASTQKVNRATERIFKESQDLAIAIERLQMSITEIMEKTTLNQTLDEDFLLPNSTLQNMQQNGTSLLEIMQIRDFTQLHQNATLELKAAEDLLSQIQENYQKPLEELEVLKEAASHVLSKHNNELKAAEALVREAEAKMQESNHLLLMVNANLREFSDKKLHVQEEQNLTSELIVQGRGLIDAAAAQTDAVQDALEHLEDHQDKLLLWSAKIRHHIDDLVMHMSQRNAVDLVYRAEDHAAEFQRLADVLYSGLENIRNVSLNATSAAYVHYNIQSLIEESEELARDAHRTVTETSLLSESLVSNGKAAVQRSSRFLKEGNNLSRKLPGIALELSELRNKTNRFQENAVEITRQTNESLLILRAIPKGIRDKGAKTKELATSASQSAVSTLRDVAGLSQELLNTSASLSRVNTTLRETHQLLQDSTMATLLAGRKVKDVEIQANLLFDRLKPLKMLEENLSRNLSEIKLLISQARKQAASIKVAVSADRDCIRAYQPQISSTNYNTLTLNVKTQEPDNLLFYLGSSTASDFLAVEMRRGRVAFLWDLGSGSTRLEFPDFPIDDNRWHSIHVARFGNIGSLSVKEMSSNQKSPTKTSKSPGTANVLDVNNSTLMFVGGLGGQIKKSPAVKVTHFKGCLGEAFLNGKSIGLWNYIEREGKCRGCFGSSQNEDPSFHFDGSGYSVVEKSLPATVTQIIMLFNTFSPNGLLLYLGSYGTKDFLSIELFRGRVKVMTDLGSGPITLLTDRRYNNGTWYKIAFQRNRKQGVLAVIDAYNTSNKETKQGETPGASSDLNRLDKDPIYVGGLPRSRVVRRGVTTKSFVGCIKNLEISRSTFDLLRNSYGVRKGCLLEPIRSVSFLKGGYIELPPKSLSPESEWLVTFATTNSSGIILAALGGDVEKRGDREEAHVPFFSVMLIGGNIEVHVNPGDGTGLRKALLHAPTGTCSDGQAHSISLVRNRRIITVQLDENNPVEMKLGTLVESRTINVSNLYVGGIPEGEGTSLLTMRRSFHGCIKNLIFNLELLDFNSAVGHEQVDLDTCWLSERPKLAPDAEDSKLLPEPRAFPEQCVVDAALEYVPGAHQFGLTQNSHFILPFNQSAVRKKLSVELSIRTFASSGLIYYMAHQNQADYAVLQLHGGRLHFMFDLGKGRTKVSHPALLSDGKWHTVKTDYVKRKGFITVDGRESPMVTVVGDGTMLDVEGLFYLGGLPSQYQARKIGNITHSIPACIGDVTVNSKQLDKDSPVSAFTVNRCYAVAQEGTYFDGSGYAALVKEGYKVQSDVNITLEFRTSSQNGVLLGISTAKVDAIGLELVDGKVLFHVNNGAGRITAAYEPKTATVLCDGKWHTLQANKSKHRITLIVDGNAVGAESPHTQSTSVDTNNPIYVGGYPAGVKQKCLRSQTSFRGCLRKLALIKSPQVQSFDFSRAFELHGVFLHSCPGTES

## CC[C@H](C)[C@H](NC(=O)[C@H](C)NC(=O)CNC(=O)[C@H](CCCNC(=N)N)NC(=O)[C@@H](NC(=O)CCCC(C)=O)[C@@H](C)O)C(=O)N[C@H](C(=O)N[C@@H](CCC(N)=O)C(=O)N[C@H](C(=O)N1CCC[C@H]1C(=O)N[C@H](C(=O)N[C@@H](CC(C)C)C(=O)NCC(=O)N1CCC[C@H]1C(=O)N[C@H](C(=O)N[C@@H](CCC(N)=O)C(=O)N1CCC[C@H]1C(=O)N[C@H](C(=O)N[C@@H](CCCNC(=N)N)C(=O)N[C@H](C(N)=O)C(C)C)[C@@H](C)O)[C@@H](C)CC)[C@@H](C)O)[C@@H](C)O[C@H]1O[C@H](CO)[C@@H](O)[C@H](O)[C@@H]1O[C@@H]1O[C@H](CO)[C@@H](O[C@@H]2O[C@H](CO)[C@H](O)[C@H](O)[C@H]2O)[C@H](O)[C@H]1NC(C)=O)[C@@H](C)CC ({Hexanoyl(5-oxo)}-TRGAIIQT(X2)PTLGPIQPTRV-NH2)
Datura stramonium
  Activity: inactive
Arachis hypogaea
  Activity: Active
[1]
  Activity: Active
[2]
  Activity: Active
[3]
  Activity: inactive
[4]
  Activity: Active
Homo sapiens [5]
  Activity: inactive
Canavalia ensiformis
  Activity: Active
Homo sapiens [6]
  Activity: Active
[7]
  Activity: Active
Erythrina crista-galli
  Activity: Active
[8]
  Activity: Active
Maackia amurensis
  Activity: inactive
Triticum aestivum
  Activity: Active

## CC[C@H](C)[C@H](NC(=O)[C@H](C)NC(=O)CNC(=O)[C@H](CCCNC(=N)N)NC(=O)[C@@H](NC(=O)CCCC(C)=O)[C@@H](C)O)C(=O)N[C@H](C(=O)N[C@@H](CCC(N)=O)C(=O)N[C@H](C(=O)N1CCC[C@H]1C(=O)N[C@H](C(=O)N[C@@H](CC(C)C)C(=O)NCC(=O)N1CCC[C@H]1C(=O)N[C@H](C(=O)N[C@@H](CCC(N)=O)C(=O)N1CCC[C@H]1C(=O)N[C@H](C(=O)N[C@@H](CCCNC(=N)N)C(=O)N[C@H](C(N)=O)C(C)C)[C@@H](C)O)[C@@H](C)CC)[C@@H](C)O)[C@@H](C)O[C@H]1O[C@H](CO)[C@@H](O)[C@H](O)[C@@H]1O[C@@H]1O[C@H](CO)[C@@H](O[C@@H]2O[C@H](CO)[C@H](O)[C@H](O[C@]3(C(=O)O)C[C@H](O)[C@@H](NC(C)=O)[C@H]([C@H](O)[C@H](O)CO)O3)[C@H]2O)[C@H](O)[C@H]1NC(C)=O)[C@@H](C)CC ({Hexanoyl(5-oxo)}-TRGAIIQT(X1)PTLGPIQPTRV-NH2)
Datura stramonium
  Activity: inactive
Arachis hypogaea
  Activity: Active
[1]
  Activity: Active
[2]
  Activity: Active
[3]
  Activity: inactive
[4]
  Activity: Active
Homo sapiens [5]
  Activity: inactive
Canavalia ensiformis
  Activity: Active
Homo sapiens [6]
  Activity: Active
[7]
  Activity: Active
Erythrina crista-galli
  Activity: Active
[8]
  Activity: Active
Maackia amurensis
  Activity: inactive
Triticum aestivum
  Activity: Active
